Assay results taken from ChEMBL document CHEMBL4507329, “Data for DCP probe BTZO-1” (2021).

Experiments:
[1] = target: Serine/threonine-protein kinase PRP4 homolog (Homo sapiens) (UniProt Q13523); settings: Compound concentration 1000.0 nM
[2] = system: Tyrosine-protein kinase ABL1 (Homo sapiens), P00519 [T315I]; settings: Compound concentration 1000.0 nM
[3] = target: Uncharacterized serine/threonine-protein kinase SBK3 (Homo sapiens) (UniProt P0C264); settings: Compound concentration 1000.0 nM
[4] = target: SRSF protein kinase 1 (Homo sapiens) (UniProt Q96SB4); settings: Compound concentration 1000.0 nM
[5] = target: Mast/stem cell growth factor receptor Kit (Homo sapiens) (UniProt P10721); settings: Compound concentration 1000.0 nM
[6] = target: Mitogen-activated protein kinase 1 (Homo sapiens) (UniProt P28482); settings: Compound concentration 1000.0 nM
[7] = system: Tyrosine-protein kinase ABL1 (Homo sapiens), P00519 [H396P]; settings: Compound concentration 1000.0 nM
[8] = system: Phosphatidylinositol 4,5-bisphosphate 3-kinase catalytic subunit alpha isoform (Homo sapiens), P42336 [M1043I]; settings: Compound concentration 1000.0 nM
[9] = target: Tyrosine-protein kinase Lyn (Homo sapiens) (UniProt P07948); settings: Compound concentration 1000.0 nM
[10] = target: Membrane-associated tyrosine- and threonine-specific cdc2-inhibitory kinase (Homo sapiens) (UniProt Q99640); settings: Compound concentration 1000.0 nM
[11] = target: Mitogen-activated protein kinase kinase kinase 10 (Homo sapiens) (UniProt Q02779); settings: Compound concentration 1000.0 nM
[12] = target: Ribosomal protein S6 kinase alpha-5 (Homo sapiens) (UniProt O75582); settings: Compound concentration 1000.0 nM
[13] = target: Fibroblast growth factor receptor 4 (Homo sapiens) (UniProt P22455); settings: Compound concentration 1000.0 nM
[14] = system: Fibroblast growth factor receptor 3 (Homo sapiens), P22607 [G697C]; settings: Compound concentration 1000.0 nM
[15] = target: Phosphorylase b kinase regulatory subunit alpha, liver isoform (Homo sapiens) (UniProt P46019); settings: Compound concentration 1000.0 nM
[16] = target: Calcium/calmodulin-dependent protein kinase kinase 1 (Homo sapiens) (UniProt Q8N5S9); settings: Compound concentration 1000.0 nM
[17] = target: Protein kinase C delta type (Homo sapiens) (UniProt Q05655); settings: Compound concentration 1000.0 nM
[18] = target: Ephrin type-A receptor 2 (Homo sapiens) (UniProt P29317); settings: Compound concentration 1000.0 nM
[19] = target: Histamine H2 receptor (Homo sapiens) (UniProt P25021); settings: Compound concentration 10.0 uM
[20] = target: Tyrosine-protein kinase receptor Tie-1 (Homo sapiens) (UniProt P35590); settings: Compound concentration 1000.0 nM
[21] = target: Fibroblast growth factor receptor 1 (Homo sapiens) (UniProt P11362); settings: Compound concentration 1000.0 nM
[22] = target: Ribosomal protein S6 kinase alpha-4 (Homo sapiens) (UniProt O75676); settings: Compound concentration 1000.0 nM
[23] = target: Serine/threonine-protein kinase/endoribonuclease IRE1 (Homo sapiens) (UniProt O75460); settings: Compound concentration 1000.0 nM
[24] = target: Casein kinase II subunit alpha (Homo sapiens) (UniProt P68400); settings: Compound concentration 1000.0 nM
[25] = target: Serine/threonine-protein kinase 32C (Homo sapiens) (UniProt Q86UX6); settings: Compound concentration 1000.0 nM
[26] = target: Tyrosine-protein kinase JAK1 (Homo sapiens) (UniProt P23458); settings: Compound concentration 1000.0 nM
[27] = target: Cyclin-dependent kinase-like 5 (Homo sapiens) (UniProt O76039); settings: Compound concentration 1000.0 nM
[28] = target: Phosphatidylinositol 4-phosphate 5-kinase type-1 gamma (Homo sapiens) (UniProt O60331); settings: Compound concentration 1000.0 nM
[29] = target: Rho-associated protein kinase 1 (Homo sapiens) (UniProt Q13464); settings: Compound concentration 1000.0 nM
[30] = target: Muscle, skeletal receptor tyrosine-protein kinase (Homo sapiens) (UniProt O15146); settings: Compound concentration 1000.0 nM
[31] = target: Ephrin type-B receptor 1 (Homo sapiens) (UniProt P54762); settings: Compound concentration 1000.0 nM
[32] = target: Casein kinase I isoform epsilon (Homo sapiens) (UniProt P49674); settings: Compound concentration 1000.0 nM
[33] = target: Tyrosine-protein kinase Fer (Homo sapiens) (UniProt P16591); settings: Compound concentration 1000.0 nM
[34] = target: Serine/threonine-protein kinase TBK1 (Homo sapiens) (UniProt Q9UHD2); settings: Compound concentration 1000.0 nM
[35] = target: Atypical kinase COQ8A, mitochondrial (Homo sapiens) (UniProt Q8NI60); settings: Compound concentration 1000.0 nM
[36] = target: Casein kinase I isoform gamma-2 (Homo sapiens) (UniProt P78368); settings: Compound concentration 1000.0 nM
[37] = system: Tyrosine-protein kinase ABL1 (Homo sapiens), P00519 [H396P]; settings: Compound concentration 1000.0 nM; remark: listed apart in the source
[38] = target: Ephrin type-A receptor 3 (Homo sapiens) (UniProt P29320); settings: Compound concentration 1000.0 nM
[39] = target: Leucine-rich repeat serine/threonine-protein kinase 2 (Homo sapiens) (UniProt Q5S007); settings: Compound concentration 1000.0 nM
[40] = target: Alpha-2B adrenergic receptor (Homo sapiens) (UniProt P18089); settings: Compound concentration 10.0 uM
[41] = target: Serine/threonine-protein kinase 17B (Homo sapiens) (UniProt O94768); settings: Compound concentration 1000.0 nM
[42] = target: Mitogen-activated protein kinase 11 (Homo sapiens) (UniProt Q15759); settings: Compound concentration 1000.0 nM
[43] = target: Tyrosine-protein kinase Lck (Homo sapiens) (UniProt P06239); settings: Compound concentration 1000.0 nM
[44] = target: Epidermal growth factor receptor (Homo sapiens) (UniProt P00533); settings: Compound concentration 1000.0 nM
[45] = target: Discoidin domain-containing receptor 2 (Homo sapiens) (UniProt Q16832); settings: Compound concentration 1000.0 nM
Discoidin domain-containing receptor 2 (Homo sapiens), sequence (Q16832 whole entry, the tested form may be a part): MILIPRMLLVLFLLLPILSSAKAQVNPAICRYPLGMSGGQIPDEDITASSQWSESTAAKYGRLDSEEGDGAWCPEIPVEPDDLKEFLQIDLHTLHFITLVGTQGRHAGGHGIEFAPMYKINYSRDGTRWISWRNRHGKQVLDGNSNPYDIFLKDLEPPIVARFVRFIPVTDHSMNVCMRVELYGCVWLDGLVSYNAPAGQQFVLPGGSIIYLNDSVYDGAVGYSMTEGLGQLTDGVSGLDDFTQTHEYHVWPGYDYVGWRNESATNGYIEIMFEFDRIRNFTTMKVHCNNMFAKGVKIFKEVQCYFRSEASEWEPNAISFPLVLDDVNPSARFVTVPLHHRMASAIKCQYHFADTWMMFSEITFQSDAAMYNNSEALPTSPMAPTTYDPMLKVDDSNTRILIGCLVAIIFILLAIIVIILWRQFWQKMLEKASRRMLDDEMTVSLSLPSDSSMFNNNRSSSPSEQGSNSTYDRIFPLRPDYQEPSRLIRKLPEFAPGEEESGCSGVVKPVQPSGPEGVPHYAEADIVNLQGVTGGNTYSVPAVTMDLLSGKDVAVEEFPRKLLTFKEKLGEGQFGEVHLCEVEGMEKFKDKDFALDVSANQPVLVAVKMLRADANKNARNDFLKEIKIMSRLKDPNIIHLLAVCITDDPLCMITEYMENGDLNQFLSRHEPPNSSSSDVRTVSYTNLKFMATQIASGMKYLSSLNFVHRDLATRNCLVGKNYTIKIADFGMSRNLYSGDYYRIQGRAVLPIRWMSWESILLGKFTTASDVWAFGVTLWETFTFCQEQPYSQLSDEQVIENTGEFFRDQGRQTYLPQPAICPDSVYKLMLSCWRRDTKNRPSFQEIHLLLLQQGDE

Fibroblast growth factor receptor 4 (Homo sapiens), sequence (P22455 22-802 limits assumed): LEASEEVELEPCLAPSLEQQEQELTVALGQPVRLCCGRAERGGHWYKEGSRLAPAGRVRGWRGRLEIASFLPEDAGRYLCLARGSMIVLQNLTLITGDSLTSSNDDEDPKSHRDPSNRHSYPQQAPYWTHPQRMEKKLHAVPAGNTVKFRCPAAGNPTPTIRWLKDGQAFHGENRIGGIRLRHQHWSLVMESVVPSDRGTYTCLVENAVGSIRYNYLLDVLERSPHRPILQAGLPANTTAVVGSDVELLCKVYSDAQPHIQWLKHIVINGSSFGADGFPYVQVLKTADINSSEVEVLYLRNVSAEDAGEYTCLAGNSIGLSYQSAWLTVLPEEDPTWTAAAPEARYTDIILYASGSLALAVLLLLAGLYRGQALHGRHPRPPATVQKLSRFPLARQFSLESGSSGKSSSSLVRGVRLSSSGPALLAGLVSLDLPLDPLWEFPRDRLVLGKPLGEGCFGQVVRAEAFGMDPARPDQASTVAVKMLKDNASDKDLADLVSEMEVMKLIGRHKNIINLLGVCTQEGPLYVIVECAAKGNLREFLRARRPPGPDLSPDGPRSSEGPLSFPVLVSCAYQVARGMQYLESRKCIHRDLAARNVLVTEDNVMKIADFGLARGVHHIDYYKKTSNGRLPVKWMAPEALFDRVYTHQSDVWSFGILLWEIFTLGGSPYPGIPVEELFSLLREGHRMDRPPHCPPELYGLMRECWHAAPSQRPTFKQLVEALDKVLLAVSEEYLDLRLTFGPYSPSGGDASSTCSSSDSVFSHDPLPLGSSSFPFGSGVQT
SRSF protein kinase 1 (Homo sapiens), sequence (Q96SB4 whole entry): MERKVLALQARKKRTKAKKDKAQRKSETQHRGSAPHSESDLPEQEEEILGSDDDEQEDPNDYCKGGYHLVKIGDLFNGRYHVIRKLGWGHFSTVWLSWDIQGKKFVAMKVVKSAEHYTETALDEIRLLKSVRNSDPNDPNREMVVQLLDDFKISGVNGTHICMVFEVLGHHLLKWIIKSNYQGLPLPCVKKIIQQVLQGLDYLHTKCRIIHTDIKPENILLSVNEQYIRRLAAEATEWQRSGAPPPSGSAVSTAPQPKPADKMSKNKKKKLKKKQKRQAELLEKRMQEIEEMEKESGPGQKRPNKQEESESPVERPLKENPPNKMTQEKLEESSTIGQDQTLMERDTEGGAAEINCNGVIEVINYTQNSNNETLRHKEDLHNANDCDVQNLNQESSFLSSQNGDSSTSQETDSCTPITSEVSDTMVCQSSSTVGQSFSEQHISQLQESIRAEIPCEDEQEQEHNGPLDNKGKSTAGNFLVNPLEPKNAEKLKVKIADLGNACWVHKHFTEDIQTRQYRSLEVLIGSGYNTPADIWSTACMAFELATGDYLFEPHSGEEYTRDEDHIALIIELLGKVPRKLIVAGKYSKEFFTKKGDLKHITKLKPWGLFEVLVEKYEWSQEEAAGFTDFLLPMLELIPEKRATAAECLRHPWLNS
Tyrosine-protein kinase Fer (Homo sapiens), sequence (P16591 whole entry, looked up): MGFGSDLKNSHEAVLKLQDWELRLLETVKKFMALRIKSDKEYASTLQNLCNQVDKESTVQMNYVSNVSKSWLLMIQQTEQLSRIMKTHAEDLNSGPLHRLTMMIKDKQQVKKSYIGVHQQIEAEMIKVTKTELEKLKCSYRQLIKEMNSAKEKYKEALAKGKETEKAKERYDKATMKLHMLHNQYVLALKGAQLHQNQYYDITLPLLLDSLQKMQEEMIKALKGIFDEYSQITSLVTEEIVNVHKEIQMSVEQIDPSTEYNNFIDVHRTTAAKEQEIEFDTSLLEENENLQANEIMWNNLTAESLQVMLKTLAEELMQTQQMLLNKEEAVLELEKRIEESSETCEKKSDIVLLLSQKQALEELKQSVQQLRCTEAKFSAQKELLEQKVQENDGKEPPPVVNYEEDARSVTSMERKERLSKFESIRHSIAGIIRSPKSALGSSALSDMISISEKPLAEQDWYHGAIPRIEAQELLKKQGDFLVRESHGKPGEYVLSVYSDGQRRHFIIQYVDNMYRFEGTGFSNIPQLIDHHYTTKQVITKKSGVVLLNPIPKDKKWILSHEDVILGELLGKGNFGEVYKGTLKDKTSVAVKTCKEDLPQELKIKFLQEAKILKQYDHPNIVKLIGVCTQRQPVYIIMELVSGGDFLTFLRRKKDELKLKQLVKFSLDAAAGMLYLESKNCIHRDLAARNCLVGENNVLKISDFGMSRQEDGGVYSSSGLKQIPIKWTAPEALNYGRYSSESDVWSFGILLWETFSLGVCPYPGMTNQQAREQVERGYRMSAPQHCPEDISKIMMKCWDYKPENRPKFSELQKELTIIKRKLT
Serine/threonine-protein kinase 17B (Homo sapiens), sequence (O94768 whole entry): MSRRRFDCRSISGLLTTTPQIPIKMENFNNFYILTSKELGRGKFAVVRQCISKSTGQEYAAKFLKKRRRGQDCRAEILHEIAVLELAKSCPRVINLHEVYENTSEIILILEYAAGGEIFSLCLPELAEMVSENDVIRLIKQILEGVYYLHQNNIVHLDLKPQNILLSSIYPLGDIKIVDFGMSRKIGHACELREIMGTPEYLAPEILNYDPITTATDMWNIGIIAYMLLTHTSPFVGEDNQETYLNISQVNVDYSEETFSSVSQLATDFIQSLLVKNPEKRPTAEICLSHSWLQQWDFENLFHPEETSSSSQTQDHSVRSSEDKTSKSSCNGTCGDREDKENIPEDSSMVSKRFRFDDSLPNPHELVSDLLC
Phosphorylase b kinase regulatory subunit alpha, liver isoform (Homo sapiens), sequence (P46019 whole entry, canonical isoform): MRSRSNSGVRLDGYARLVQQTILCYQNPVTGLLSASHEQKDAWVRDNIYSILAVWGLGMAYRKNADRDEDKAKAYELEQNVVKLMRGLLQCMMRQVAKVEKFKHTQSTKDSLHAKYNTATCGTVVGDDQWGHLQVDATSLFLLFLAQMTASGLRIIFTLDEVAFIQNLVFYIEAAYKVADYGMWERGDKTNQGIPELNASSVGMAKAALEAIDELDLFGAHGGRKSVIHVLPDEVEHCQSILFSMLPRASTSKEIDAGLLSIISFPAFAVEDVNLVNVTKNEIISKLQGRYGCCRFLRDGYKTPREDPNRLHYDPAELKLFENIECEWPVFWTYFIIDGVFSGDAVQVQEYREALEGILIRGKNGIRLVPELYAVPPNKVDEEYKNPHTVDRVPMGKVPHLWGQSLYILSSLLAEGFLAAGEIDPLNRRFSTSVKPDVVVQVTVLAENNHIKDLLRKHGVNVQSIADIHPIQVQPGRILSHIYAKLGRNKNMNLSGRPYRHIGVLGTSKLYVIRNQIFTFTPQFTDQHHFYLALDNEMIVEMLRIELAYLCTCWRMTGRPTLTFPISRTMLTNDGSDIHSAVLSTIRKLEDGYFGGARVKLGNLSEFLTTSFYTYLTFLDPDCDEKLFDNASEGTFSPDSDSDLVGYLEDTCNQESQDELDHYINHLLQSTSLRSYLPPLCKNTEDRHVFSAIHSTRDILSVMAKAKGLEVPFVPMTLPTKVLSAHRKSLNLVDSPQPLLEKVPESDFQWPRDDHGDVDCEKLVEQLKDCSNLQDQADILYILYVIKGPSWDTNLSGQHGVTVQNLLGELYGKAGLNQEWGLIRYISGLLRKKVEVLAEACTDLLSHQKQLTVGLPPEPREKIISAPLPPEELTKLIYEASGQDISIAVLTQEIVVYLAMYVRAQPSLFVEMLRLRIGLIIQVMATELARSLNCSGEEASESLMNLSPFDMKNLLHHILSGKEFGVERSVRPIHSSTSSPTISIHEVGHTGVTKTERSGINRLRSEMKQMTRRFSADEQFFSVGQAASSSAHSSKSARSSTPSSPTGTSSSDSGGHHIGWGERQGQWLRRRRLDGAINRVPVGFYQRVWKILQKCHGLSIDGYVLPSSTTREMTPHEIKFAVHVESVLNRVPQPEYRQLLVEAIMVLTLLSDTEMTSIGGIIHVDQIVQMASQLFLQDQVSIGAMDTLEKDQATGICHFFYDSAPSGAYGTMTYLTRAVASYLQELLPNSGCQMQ

O=C1NC(c2ccccn2)Sc2ccccc21 (stereo not given) [BTZO-4]
inactive: residual activity [1] 78% | residual activity [2] 93% | residual activity [3] 86% | residual activity [4] 73% | residual activity [5] 88% | residual activity [6] 89% | residual activity [7] 80% | residual activity [8] 74% | residual activity [9] 80% | residual activity [10] 100% | residual activity [11] 94% | residual activity [12] 87% | residual activity [13] 89% | residual activity [14] 100% | residual activity [15] 73% | residual activity [16] 88% | residual activity [17] 71% | residual activity [18] 100% | inhibition [19] 24.8% | residual activity [20] 65% | residual activity [21] 85% | residual activity [22] 100% | residual activity [23] 100% | residual activity [24] 61% | residual activity [25] 88% | residual activity [26] 69% | residual activity [27] 100% | residual activity [28] 77% | residual activity [29] 82% | residual activity [30] 90% | residual activity [31] 90% | residual activity [32] 98% | residual activity [33] 84% | residual activity [34] 87% | residual activity [35] 98% | residual activity [36] 88% | residual activity [37] 84% | residual activity [38] 100% | residual activity [39] 93% | inhibition [40] -5.58% | residual activity [41] 73% | residual activity [42] 100% | residual activity [43] 80% | residual activity [44] 82% | residual activity [45] 100%

O=c1nc(-c2ccccn2)sc2ccccc12 [BTZO-1]
inactive: residual activity [1] 71% | residual activity [2] 100% | residual activity [3] 100% | residual activity [4] 83% | residual activity [5] 97% | residual activity [6] 91% | residual activity [7] 100% | residual activity [8] 100% | residual activity [9] 100% | residual activity [10] 100% | residual activity [11] 100% | residual activity [12] 88% | residual activity [13] 73% | residual activity [14] 100% | residual activity [15] 77% | residual activity [16] 96% | residual activity [17] 100% | residual activity [18] 100% | inhibition [19] 24.4% | residual activity [20] 91% | residual activity [21] 100% | residual activity [22] 100% | residual activity [23] 100% | residual activity [24] 68% | residual activity [25] 100% | residual activity [26] 86% | residual activity [27] 100% | residual activity [28] 84% | residual activity [29] 100% | residual activity [30] 100% | residual activity [31] 88% | residual activity [32] 88% | residual activity [33] 94% | residual activity [34] 91% | residual activity [35] 88% | residual activity [36] 74% | residual activity [37] 99% | residual activity [38] 87% | residual activity [39] 97% | inhibition [40] 17% | residual activity [41] 80% | residual activity [42] 100% | residual activity [43] 95% | residual activity [44] 70% | residual activity [45] 100%
